Assay results from paper PMC8213057, “Targeting ALK2: An Open Science Approach to Developing Therapeutics for the Treatment of Diffuse Intrinsic Pontine Glioma” (Journal of Medicinal Chemistry, 2020).

Experiments:
[1] = biological target: T1, DDR2 (Homo sapiens, UniProt Q16832); conditions: 1 μM; Run 1, Run 2
T1 sequence (Q16832 22-855): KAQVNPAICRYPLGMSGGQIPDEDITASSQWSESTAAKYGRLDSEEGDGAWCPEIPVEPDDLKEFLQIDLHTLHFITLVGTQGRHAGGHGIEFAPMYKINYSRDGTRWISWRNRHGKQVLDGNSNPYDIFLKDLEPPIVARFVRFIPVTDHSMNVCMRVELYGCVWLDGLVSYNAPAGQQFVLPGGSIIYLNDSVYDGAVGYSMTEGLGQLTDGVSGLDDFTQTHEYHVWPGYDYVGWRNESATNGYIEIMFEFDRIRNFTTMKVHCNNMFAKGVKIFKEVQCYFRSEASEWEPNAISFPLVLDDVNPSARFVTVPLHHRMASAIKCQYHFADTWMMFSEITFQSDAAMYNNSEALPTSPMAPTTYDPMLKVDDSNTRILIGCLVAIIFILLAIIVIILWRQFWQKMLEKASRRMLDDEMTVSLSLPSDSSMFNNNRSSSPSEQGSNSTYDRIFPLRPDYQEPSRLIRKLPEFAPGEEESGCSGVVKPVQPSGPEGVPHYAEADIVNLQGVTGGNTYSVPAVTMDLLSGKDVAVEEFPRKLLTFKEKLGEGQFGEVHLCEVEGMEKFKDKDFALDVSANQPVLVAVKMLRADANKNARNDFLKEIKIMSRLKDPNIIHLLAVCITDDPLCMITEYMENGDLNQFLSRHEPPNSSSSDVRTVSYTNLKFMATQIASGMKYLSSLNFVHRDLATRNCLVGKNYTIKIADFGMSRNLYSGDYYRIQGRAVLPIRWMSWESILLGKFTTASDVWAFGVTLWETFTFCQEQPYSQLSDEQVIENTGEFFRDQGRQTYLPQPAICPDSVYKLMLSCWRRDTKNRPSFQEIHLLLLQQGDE

[2] = biological target: JAK1 (Homo sapiens, UniProt P23458); conditions: 1 μM; Run 1, Run 2
JAK1, sequence (P23458 whole entry): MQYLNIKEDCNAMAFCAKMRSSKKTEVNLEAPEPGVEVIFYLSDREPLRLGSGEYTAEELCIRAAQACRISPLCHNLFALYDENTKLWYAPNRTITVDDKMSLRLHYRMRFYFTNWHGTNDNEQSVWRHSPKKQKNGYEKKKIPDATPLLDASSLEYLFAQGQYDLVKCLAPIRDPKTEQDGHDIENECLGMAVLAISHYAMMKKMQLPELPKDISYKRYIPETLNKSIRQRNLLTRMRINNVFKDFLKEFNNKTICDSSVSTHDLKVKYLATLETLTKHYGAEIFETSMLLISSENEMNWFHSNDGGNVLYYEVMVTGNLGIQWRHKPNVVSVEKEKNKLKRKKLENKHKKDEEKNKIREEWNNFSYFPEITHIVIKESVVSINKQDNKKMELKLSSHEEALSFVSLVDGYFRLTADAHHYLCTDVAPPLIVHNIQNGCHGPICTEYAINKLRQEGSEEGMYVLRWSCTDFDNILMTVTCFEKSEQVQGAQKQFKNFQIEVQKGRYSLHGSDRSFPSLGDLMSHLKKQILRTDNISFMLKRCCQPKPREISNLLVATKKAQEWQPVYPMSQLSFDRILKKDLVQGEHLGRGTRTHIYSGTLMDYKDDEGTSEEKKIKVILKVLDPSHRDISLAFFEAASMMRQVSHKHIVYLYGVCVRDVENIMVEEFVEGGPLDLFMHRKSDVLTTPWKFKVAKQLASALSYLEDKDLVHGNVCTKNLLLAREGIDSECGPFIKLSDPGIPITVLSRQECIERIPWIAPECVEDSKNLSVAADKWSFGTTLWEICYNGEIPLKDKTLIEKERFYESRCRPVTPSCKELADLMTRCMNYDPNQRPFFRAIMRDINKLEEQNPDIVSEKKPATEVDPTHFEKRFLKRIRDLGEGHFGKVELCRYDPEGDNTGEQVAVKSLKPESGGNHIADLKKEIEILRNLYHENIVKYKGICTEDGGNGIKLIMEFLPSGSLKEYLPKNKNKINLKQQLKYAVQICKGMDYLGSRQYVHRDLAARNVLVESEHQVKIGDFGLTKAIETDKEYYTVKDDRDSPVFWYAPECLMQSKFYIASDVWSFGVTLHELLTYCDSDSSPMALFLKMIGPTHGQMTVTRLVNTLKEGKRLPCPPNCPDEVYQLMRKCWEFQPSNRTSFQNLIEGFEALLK

[3] = biological target: T2, KSR2 (Homo sapiens, UniProt Q6VAB6); conditions: 1 μM; Run 1, Run 2
T2 sequence (Q6VAB6 1-950): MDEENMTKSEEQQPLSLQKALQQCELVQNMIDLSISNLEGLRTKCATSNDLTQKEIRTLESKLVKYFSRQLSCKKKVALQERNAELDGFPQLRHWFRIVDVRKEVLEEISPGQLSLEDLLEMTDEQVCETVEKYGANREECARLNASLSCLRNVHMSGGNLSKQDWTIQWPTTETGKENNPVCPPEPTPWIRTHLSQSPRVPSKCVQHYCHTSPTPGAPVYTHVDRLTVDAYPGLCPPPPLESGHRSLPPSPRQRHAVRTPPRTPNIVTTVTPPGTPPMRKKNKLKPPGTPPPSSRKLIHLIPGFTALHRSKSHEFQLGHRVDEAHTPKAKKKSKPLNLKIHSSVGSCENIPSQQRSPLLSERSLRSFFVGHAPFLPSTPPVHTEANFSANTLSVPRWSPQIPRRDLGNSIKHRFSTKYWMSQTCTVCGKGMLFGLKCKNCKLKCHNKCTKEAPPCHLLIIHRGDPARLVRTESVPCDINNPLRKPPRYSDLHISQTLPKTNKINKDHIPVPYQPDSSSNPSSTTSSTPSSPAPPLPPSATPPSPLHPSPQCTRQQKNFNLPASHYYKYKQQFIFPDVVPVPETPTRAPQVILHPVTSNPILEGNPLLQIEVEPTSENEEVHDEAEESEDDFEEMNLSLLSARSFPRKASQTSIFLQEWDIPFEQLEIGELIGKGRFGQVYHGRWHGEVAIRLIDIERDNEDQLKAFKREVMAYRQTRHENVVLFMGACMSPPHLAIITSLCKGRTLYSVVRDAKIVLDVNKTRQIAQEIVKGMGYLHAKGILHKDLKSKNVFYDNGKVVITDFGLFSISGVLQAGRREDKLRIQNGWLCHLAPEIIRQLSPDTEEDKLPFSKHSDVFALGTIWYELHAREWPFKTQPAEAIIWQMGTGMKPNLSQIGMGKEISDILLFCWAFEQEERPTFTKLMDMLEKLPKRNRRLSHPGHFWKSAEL

[4] = biological target: CDK4/cyclin D1 (Homo sapiens, UniProt P11802); experiment: biochemical; conditions: read-out: % enzyme activity, 1 μM; Run 1, Run 2
CDK4/cyclin D1, sequence (P11802 whole entry): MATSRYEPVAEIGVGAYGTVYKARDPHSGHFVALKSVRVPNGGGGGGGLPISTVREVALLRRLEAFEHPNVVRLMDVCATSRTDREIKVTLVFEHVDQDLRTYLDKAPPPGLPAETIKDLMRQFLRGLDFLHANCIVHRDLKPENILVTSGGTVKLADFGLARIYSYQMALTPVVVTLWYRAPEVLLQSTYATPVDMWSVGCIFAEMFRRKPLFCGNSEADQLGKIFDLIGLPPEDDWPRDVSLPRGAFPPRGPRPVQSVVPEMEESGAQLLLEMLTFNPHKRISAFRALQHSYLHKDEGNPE
CDK4/cyclin D1, sequence (P24385 whole entry partner): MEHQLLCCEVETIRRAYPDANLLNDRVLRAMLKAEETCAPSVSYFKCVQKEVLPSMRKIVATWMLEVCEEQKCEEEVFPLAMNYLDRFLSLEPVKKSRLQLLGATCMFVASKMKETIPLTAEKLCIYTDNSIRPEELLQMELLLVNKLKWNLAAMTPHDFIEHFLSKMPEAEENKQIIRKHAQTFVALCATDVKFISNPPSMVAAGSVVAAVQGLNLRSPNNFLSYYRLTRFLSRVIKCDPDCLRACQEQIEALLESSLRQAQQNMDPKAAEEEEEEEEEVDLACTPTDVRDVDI

[5] = biological target: T3, MKK7 (Homo sapiens, UniProt O14733); experiment: biochemical; conditions: read-out: % enzyme activity, 1 μM; Run 1, Run 2
T3 sequence (O14733 1-419): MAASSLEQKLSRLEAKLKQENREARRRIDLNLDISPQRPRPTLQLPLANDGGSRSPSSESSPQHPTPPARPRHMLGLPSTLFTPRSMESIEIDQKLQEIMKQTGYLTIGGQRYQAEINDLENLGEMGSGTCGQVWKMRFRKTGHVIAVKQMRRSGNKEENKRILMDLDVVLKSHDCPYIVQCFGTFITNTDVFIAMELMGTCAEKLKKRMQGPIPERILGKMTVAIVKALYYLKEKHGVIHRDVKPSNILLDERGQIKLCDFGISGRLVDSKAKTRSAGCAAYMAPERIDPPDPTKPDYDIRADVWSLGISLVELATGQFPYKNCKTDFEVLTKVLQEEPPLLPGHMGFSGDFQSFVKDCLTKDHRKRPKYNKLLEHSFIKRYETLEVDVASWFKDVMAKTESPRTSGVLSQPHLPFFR

For `COc1cc(-c2cncc(-c3ccc(N4CCN(C)CC4)cc3)c2C)cc(F)c1C(N)=O` [Compound 26a, 2-Fluoro-6-methoxy-4-(4-methyl-5-(4-(4-methylpiperazin-1-yl)phenyl)pyridin-3-yl)benzamide], the “% enzyme activity” value [1] was 96.68%, the “% enzyme activity” value [2] was 99.53% and the “% enzyme activity” value [3] was 93.25%. The remaining activity at 1 µM [4] was 99.4% and the remaining activity at 1 µM [5] was 93%.
`COc1cc(-c2cncc(-c3ccc(N4C[C@@H](C)N(C)[C@@H](C)C4)cc3)c2C)cc(F)c1C(N)=O` [Compound 26c, 2-Fluoro-6-methoxy-4-(4-methyl-5-(4-((3R,5S)-3,4,5-trimethylpiperazin-1-yl)phenyl)pyridin-3-yl)benzamide] was tested, and the “% enzyme activity” value [1] was 92.27%, the “% enzyme activity” value [2] was 99.07% and the “% enzyme activity” value [3] was 97.71%. The remaining activity at 1 µM [4] was 100% and the remaining activity at 1 µM [5] was 98.7%.
